The values that follow come from patent US8283366B2, “Derivatives of pyridoxine for inhibiting HIV integrase” (Ambrilia Biopharma, Inc., priority 2010, dated 2012).

In general, EC50 refers to the concentration giving half of the maximal effect. In general, IC50 refers to the concentration needed to halve the response being measured.

Experiment [1] has as its system wild type NL-4.3. Briefly: Multi-cycle infection assay in MT-4 cells, MTT cytoprotection readout. The format is cell-based, HIV-1. The settings on record: read-out: EC50 (nM) multi-cycle. How it is done:
The antiviral efficacies of the integrase inhibitor compounds of the invention were evaluated based on EC50 measures obtained from two different in vitro HIV infection assay using cultured MT-4 cells: (1) a multi-cycle infection where cells were infected with wild type NL-4.3) and (2) a single-cycle infection where the cells were infected with a luciferase-bearing, envelope defective (env-) NL-4.3 virus pseudotyped with HIV-1 env (HXBc2.
The incubation period for the multi-cycle infection assay was 6 days. Cell viability (cytoprotection) and EC50 were determined using the colorimetric MTT assay (A. J. Japour et al, Antimicrobial Agents and Chemotherapy, 37, 1095-1101, 1993 and R. Pauwels et al. Journal of Virological Methods, 20, 309-321, 1988).

The subject of experiment [2] is NL4.3 virus. Kind of experiment: Multi-cycle antiviral activity without and with human serum, p24 ELISA. The conditions noted are these: for EC50: Human immunodeficiency virus 1, 144 h; for Fold-change with HS: EC50 with 40% HS versus 10% FBS alone. In general terms: ELISA stands for enzyme-linked immunosorbent assay.
Protocol: The multi-cycle antiviral activity in the absence and presence of human serum was determined by p24 ELISA measurement after 6 days of NL4.3 virus infection.
Experiment [3] has as its target T1, recombinant HIV-1 integrase (Human immunodeficiency virus type 1 group M subtype B, UniProt P04585).
T1 construct: recombinant HIV-1 integrase
Kind of experiment: Integrase strand transfer assay. The format is biochemical. The settings on record: compounds added after assembly, 10% DMSO, read-out: ST IC50. How it is done: IC50 was determined for the compounds of the inventions based on data generated in strand transfer assays. The IC50 is a measure of the ability of the compounds tested to inhibit the integration of 3′-processed oligonucleotides by recombinant HIV-1 integrase.
Strand transfer assays were performed essentially as described in Hazuda, D. J.; Felock, P.; Hastings, J. C.; Pramanik, B.; Wolfe, A. J. Virol. 1997, 71, 7005-7011). Donor DNA (1.5 pmol/well), biotinylated on the 5′ end of the strand processed by integrase, was immobilized onto streptavidin-coated microtiter plates. Recombinant integrase (250 ng/well) was assembled onto the immobilized donor oligonucleotide in reaction buffer (20 mM Hepes, pH 7.6, 5 mM B-mercaptoethanol, 50 ug/mL bovine serum albumin) containing 30 mM MnCl2. Excess enzyme was removed, and the complexes were washed extensively prior to the addition of the target DNA substrate. The target DNA (0.75 pmoles/well) substrate was labeled on each 3′ end with FITC. After strand transfer, the FITC-labeled products were detected using an anti-FITC antibody conjugated with alkaline phosphatase (Roche) and a chemi-luminescent substrate (Tropix CSPD with Sapphire II enhancer, Applied Biosystems). The assay was performed in a final concentration of 10% DMSO. To specifically evaluate inhibition of strand transfer, compounds were added after assembly, just prior to the addition of the target DNA.
The results of the integrase strand transfer assay are reported as IC50 values. IC50 values were determined using a sigmoidal dose-response equation. The formula used for calculating % inhibition was: % Inhibition=[1−(sample counts/average of positive control)]*100.

[4] abbreviates: Human immunodeficiency virus 1, MT4, 144 h, MT-4 cells, 6 days incubation, MTT.
The mark [5] stands for this setting: read-out: EC50 (uM) 10% FBS + 40% HS.

The structures appear in SMILES notation. Where two headings read alike, the source gives them in different places.

With `CONC(=O)c1ncc(C(O)c2ccc(F)cc2)c(CO)c1O` (stereo not drawn) [Example 6, 5-((4-fluorophenyl)(hydroxy)methyl)-3-hydroxy-4-(hydroxymethyl)-N-methoxypicolinamide], the EC50 in experiment [1] (setting [4]) turned out to be 74 nM.
Take `Cc1nnc(C(=O)NC(C)(C)c2nc(C(=O)NCc3ccc(F)cc3)c(O)c(=O)n2C)o1` [Raltegravir, reference compound]: the concentration for a half-maximal effect (EC50) in experiment [1] (Human immunodeficiency virus 1, MT4, 144 h) was 20 nM; in experiment [2] (read-out: EC50 (uM) 10% FBS) it was 0.047 µM; in experiment [2] (setting [5]) it was 0.064 µM.
For `O=C(O)C(O)=CC(=O)c1cc(OCc2ccccc2)cc(OCc2ccccc2)c1` [Example L-708906, reference compound], the IC50 in experiment [3] was 45 nM. In addition, the half-maximal effective concentration (EC50) in experiment [1] (MT-4 cells, 6 days incubation, MTT) turned out to be 5800 nM.
As for `O=C(NO)c1ncc(Cc2ccc(F)cc2)c(CO)c1O` [Example 2, 5-(4-fluorobenzyl)-N,3-dihydroxy-4-(hydroxymethyl)picolinamide], in experiment [3], the half-maximal inhibitory concentration (IC50) turned out to be 35 nM. The half-maximal effective concentration (EC50) in experiment [1] (setting [4]) was 10 nM.
For the compound `Cc1c(C(O)c2ccc(F)cc2)cnc(C(=O)NO)c1O` (stereo not drawn) [Example 8, 5-((4-fluorophenyl)(hydroxy)methyl)-N,3-dihydroxy-4-methylpicolinamide], in experiment [1] (setting [4]), the concentration for a half-maximal effect (EC50) is 8 nM.
With `O=C(NO)c1ncc(C(O)c2ccc(F)cc2)c(CO)c1O` (stereo not drawn) [Example 3, 5-((4-fluorophenyl)(hydroxy)methyl)-N,3-dihydroxy-4-(hydroxymethyl)picolinamide], the EC50 in experiment [1] (setting [4]) is 2 nM.
`O=C(NO)c1ncc([C@@H](O)c2ccc(F)c(Cl)c2)c(CO)c1O` [Example 11, (S)-5-((3-Chloro-4-fluorophenyl)(hydroxy)methyl)-N,3-dihydroxy-4-(hydroxymethyl)picolinamide]: the IC50 in experiment [3] came to 23 nM. For the same compound, the 50% effective concentration (EC50) was determined as 2 nM in experiment [1] (setting [4]), 0.001 µM in experiment [2] (read-out: EC50 (uM) 10% FBS) and 0.001 µM in experiment [2] (setting [5]). The “Fold-change with HS” value in experiment [2] worked out at 1.
Turning to `Cc1c(Cc2ccc(F)cc2)cnc(C(=O)NO)c1O` [Example 7, 5-(4-fluorobenzyl)-N,3-dihydroxy-4-methylpicolinamide], the EC50 in experiment [1] (setting [4]) was 21 nM.
In the case of `Cc1c(C(=O)c2ccc(F)cc2)cnc(C(=O)NO)c1O` [Example 9, 5-(4-fluorobenzoyl)-N,3-dihydroxy-4-methylpicolinamide], the EC50 in experiment [1] (setting [4]) came out at 6680 nM.
With `CN(O)C(=O)c1ncc(C(O)c2ccc(F)cc2)c(CO)c1O` (stereo not drawn) [Example 5, 5-((4-fluorophenyl)(hydroxy)methyl)-N,3-dihydroxy-4-(hydroxymethyl)-N-methylpicolinamide], the concentration for a half-maximal effect (EC50) in experiment [1] (setting [4]) was found to be 421 nM.
Same read-out and setting: under `Cc1c(/C(=N/O)c2ccc(F)cc2)cnc(C(=O)NO)c1O` [Example 10, (E)-5-((4-fluorophenyl)(hydroxyimino)methyl)-N,3-dihydroxy-4-methylpicolinamide] stands 49 nM.
`O=C(NO)c1ncc([C@H](O)c2ccc(F)c(Cl)c2)c(CO)c1O` [Example 1, (R)-5-((3-Chloro-4-fluorophenyl)(hydroxy)methyl)-N,3-dihydroxy-4-(hydroxymethyl)picolinamide]: the IC50 in experiment [3] was 56 nM. The EC50 came to 4 nM in experiment [1] (setting [4]), 0.006 µM in experiment [2] (read-out: EC50 (uM) 10% FBS) and 0.006 µM in experiment [2] (setting [5]). Moreover, the “Fold-change with HS” value in experiment [2] amounted to 1.
